Measured values reported in ChEMBL document CHEMBL1144125, “Excavatolides U-Z, new briarane diterpenes from the gorgonian briareum excavatum” (1999).
In brackets after ≈: the same amount, converted by molar mass.

Tests used:
Format in all cases: functional
Conditions in all cases: read-out: ED50 (the source's name)
HT-29 = assay: Cytotoxicity against human HT-29 cells
KB = assay: Cytotoxicity against human KB cells
A549 = assay: Cytotoxicity against human A549 cells
P388 = assay: Cytotoxicity against mouse P388 cells

Row | SMILES | EC50 (HT-29) | EC50 (KB) | EC50 (A549) | EC50 (P388)
1 | CCCC(=O)O[C@@H]1C=C[C@]2(C)[C@H](OC(C)=O)C[C@@H](OC(C)=O)/C(C)=C\[C@@H]3OC(=O)[C@@]4(C)O[C@]34[C@H](OC(C)=O)[C@H]2[C@@]1(C)O | > 50 µg/mL | > 50 µg/mL | > 50 µg/mL | > 50 µg/mL
2 | CCC(=O)O[C@@H]1C[C@@H](OC(C)=O)[C@@]2(C)C=C[C@@H](OC(C)=O)[C@](C)(O)[C@@H]2[C@@H](OC(C)=O)[C@]23O[C@]2(C)C(=O)O[C@H]3/C=C\1C | 15.1 µg/mL (≈ 26.1 µM) | > 50 µg/mL | > 50 µg/mL | 9.5 µg/mL (≈ 16.4 µM)
3 | CCCC(=O)O[C@H]1C/C(C)=C\[C@@H]2OC(=O)[C@@]3(C)O[C@]23[C@H](OC(C)=O)[C@H]2[C@@H](C)[C@@H](OC(=O)CC)C[C@H](OC(C)=O)[C@]2(C)[C@@H]1OC(C)=O [EXCAVATOLIDE U] | > 50 µg/mL | > 50 µg/mL | > 50 µg/mL | > 50 µg/mL
4 | CCC(=O)O[C@H]1C[C@H](OC(C)=O)[C@@]2(C)[C@H]([C@H]1C)[C@@H](OC(C)=O)[C@]13O[C@]1(C)C(=O)O[C@H]3/C=C(/C)C[C@H](OC(C)=O)[C@H]2OC(C)=O [EXCAVATOLIDE V] | 20.4 µg/mL (≈ 32.8 µM) | 7 µg/mL (≈ 11.2 µM) | 19.1 µg/mL (≈ 30.7 µM) | 3.9 µg/mL (≈ 6.26 µM)
5 | CCC(=O)O[C@H]1C[C@H](OC(C)=O)[C@@]2(C)[C@H]([C@H]1C)[C@@H](O)[C@]13O[C@]1(C)C(=O)O[C@H]3/C=C(/C)CC[C@H]2OC(C)=O [EXCAVATOLIDE W] | > 50 µg/mL | > 50 µg/mL | > 50 µg/mL | 19.4 µg/mL (≈ 37.1 µM)
